According to patent US20090304744A1, “METHODS OF ENHANCING IMMUNE RESPONSE IN THE INTRADERMAL COMPARTMENT AND COMPOUNDS USEFUL THEREOF” (priority 2003, published 2009):
Like-named read-outs stand apart in the source and are kept apart here.

How the values were obtained:
[1] = test system: influenza antigen (Influenza APR834); format: in vivo, Balb/c mice; conditions: for Trend in immune response as indicated by ELISA signal (1:123 serum screening dilution): mice
swine skin = conditions: for tolerated amphotericin per dose / tolerated total amphotericin per dose: Draize score 1 hour post administration; for Erythema Draize scores (tolerability): Tween 80 5%, Deoxycholate 0.1%, D-sorbitol 5%, Lutrol 15%, without antigen, 200 ul per injection, 31 gauge 1.5 mm, 1 h and 24 h readings
guinea pig skin = assay: Guinea pig erythema Draize scoring after ID delivery of excipients; format: in vivo, Hartley guinea pigs; conditions: Tween 80 5%, Deoxycholate 0.1%, D-sorbitol 5%, Lutrol 15%; without antigen, 50 ul per injection, 34 gauge 1.0 mm; immediate, 1 h and 24 h readings
Description: The methods of the invention provide fundamental principles and guidelines whereby optimum parameters may be determined for delivering immunogenic compositions to the dermal compartment (including epidermal and intradermal compartments) wherein the excipients have optimum adjuvant properties and the formulations of the invention have enhanced efficacy in comparison to when the same formulation is delivered using conventional modes of delivery, including intramuscular and subcutaneous delivery. The invention provides methods wherein the formulations of the invention have been screened to have optimum concentration ranges for delivery to the optimum depth of the intradermal compartment such that they have adjuvant properties, resulting in one or more of the following properties: minimal to no skin irritation as determined and assessed using conventional modes of analysis of skin reactions using visual methods such as Draize scoring (For a typical draize scoring analysis see table below); minimal to no hemolysis as determined using standard methods known in the art, and enhanced immune response as measured by enhanced seroconversion and/or enhanced antibody titers.
Erythema Draize scores for various excipients were determined using procedures described in Section 5.4, above. In one study, Tween™ 80 (5%), Deoxycholate (0.1%), D-sorbitol (5%) or Lutrol™ (15%) was administered (50 μl per injection) without the antigen to Hartley guinea pigs using 34 gauge, 1.0 mm needles. […] Deeper administrations will be necessary for deoycholate to be used reliably at this concentration. From left to right, the reading immediately after administration, the one-hour reading and the 24-hour reading.

[2] = test system: trivalent test antigen (New Calcdonia, Panama and B-Hong Kong); design: species or system Hartley Guinea Pigs; conditions: guinea pig, in vivo
[3] = Yorkshire swine, 1.5 mm depth, listed as Amp-B

With Triton X-100 the “Trend in immune response as indicated by ELISA signal (1:123 serum screening dilution)” value (“Trend in immune response as indicated” for short) ([1]; excipient 0.0001% w/v with FLUZONE, ID) was 1.321 and the “Trend in immune response as indicated” value ([1]; excipient 0.0009% w/v with FLUZONE, ID) was 1.214.
With `C[C@@H]1[C@H](O)[C@@H](C)/C=C/C=C/C=C/C=C/C=C/C=C/C=C/[C@H](O[C@@H]2O[C@H](C)[C@@H](O)[C@H](N)[C@@H]2O)C[C@@H]2O[C@](O)(C[C@@H](O)C[C@@H](O)[C@H](O)CC[C@@H](O)C[C@@H](O)CC(=O)O[C@H]1C)C[C@H](O)[C@H]2C(=O)O` [Amphotericin B, reference compound] the “Trend in immune response as indicated” value ([1]; excipient 20 ng/ml with FLUZONE, ID) was 0.975, the “Trend in immune response as indicated” value ([1]; excipient 60 ng/ml with FLUZONE, ID) was 1.575 and the “Trend in immune response as indicated” value ([1]; excipient 180 ng/ml with FLUZONE, ID) was 1.018. For the same compound, the “tolerated amphotericin per dose” value (swine skin; Yorkshire swine, 1.5 mm depth) was “up to 600 ng/100 ul”, the “tolerated total amphotericin per dose” value (swine skin; Yorkshire swine, 1.5 mm depth) was ≤ 1200 ng/200 ul and the “tolerated amphotericin per dose” value (swine skin; [3]) was 600 ng/100 ul. The “tolerated total amphotericin per dose” value (swine skin; [3]) was 1200 ng/200 ul and the “tolerability by Draize score analysis” value (swine skin; alone and as a mixture with FLUZONE vaccine, 1.5 mm depth, Yorkshire swine) was “well tolerated”.
In the case of `O=S([O-])O.[Na+]` [Sodium Bisulfite], the “Trend in immune response as indicated” value ([1]; excipient 0.3% w/v with FLUZONE, ID) is reported as 0.808, the “Trend in immune response as indicated” value ([1]; excipient 0.9% w/v with FLUZONE, ID) is reported as 1.833 and the “Trend in immune response as indicated” value ([1]; excipient 2.7% w/v with FLUZONE, ID) is reported as 2.048.
For `C[C@H](CCC(=O)[O-])[C@H]1CC[C@H]2[C@@H]3CC[C@@H]4C[C@H](O)CC[C@]4(C)[C@H]3C[C@H](O)[C@]12C.[Na+]` [Deoxycholate, sodium deoxycholate], the “Erythema Draize scores (tolerability)” value (guinea pig skin) was “just above the acceptable draize score”, the “animals seroconverted 21 days after immunization” value ([1]; DOC-supplemented (0.1% sodium deoxycholate) FLUZONE, ID, Balb/c mice) was 5 of 5 and the median titer ([1]; ID formulation containing 0.1% sodium deoxycholate vs IM and ID without, Balb/c mice) was “best median titer”. For the same compound, the “Erythema Draize scores (tolerability)” value (swine skin) was “just above the acceptable draize score”, the skin compatibility (swine skin; deoxycholate 0.05 and 0.1% +/- trivalent vaccine, 1.5 mm depth, Yorkshire swine) was “performed well” and the skin compatibility (swine skin; deoxycholate 0.5% W/V and higher, 1.5 mm depth) was “could not be tolerated”. The “hemagglutin specific titer vs FLUZONE alone ID and FLUZONE alone IM” value [2] was “outperformed”.
With `OC[C@@H](O)[C@@H](O)[C@H](O)[C@@H](O)CO` [D-sorbitol] the “Erythema Draize scores (tolerability)” value (guinea pig skin) was “reasonably well-tolerated”, the “serum titer enhancement vs equal amount of Fluzone without sorbitol” value ([1]; Fluzone supplemented with sorbitol, ID, six point ELISA) was 3 × and the “Trend in immune response as indicated” value ([1]; excipient 2% w/v with FLUZONE, ID) was 1.062. The “Trend in immune response as indicated” value ([1]; excipient 10% w/v with FLUZONE, ID) was 1.102, the “Trend in immune response as indicated” value ([1]; excipient 58% w/v with FLUZONE, ID) was 1.58 and the erythema (swine skin; 10% W/V, 1-2 mm depth, 20-24 hours post administration, Yorkshire swine) was “mild erythema”. The tolerability (swine skin; 10%, delivered to 1-2 mm depth, Yorkshire swine) was “well tolerated” and the “Erythema Draize scores (tolerability)” value (swine skin) was “reasonably well-tolerated”.
`CCO` [Ethanol] was tested, and the “Trend in immune response as indicated” value ([1]; excipient 0.05% v/v with FLUZONE, ID) was 0.901, the “Trend in immune response as indicated” value ([1]; excipient 0.15% v/v with FLUZONE, ID) was 2.742 and the “Trend in immune response as indicated” value ([1]; excipient 0.45% v/v with FLUZONE, ID) was 1.530.
With `NC(N)=O` [Urea] the “Trend in immune response as indicated” value ([1]; excipient 1% w/v with FLUZONE, ID) was 0.979, the “Trend in immune response as indicated” value ([1]; excipient 5% w/v with FLUZONE, ID) was 1.585 and the “Trend in immune response as indicated” value ([1]; excipient 20% w/v with FLUZONE, ID) was 1.555.
oxtoxynol 9 [Triton N-101] was tested, and the “Trend in immune response as indicated” value ([1]; excipient 0.13% w/v with FLUZONE, ID) was 0.805 and the “Trend in immune response as indicated” value ([1]; excipient 1.3% w/v with FLUZONE, ID) was 2.035.
